The source made the active and inactive calls. No cut-off for these calls is given here.
Experiments:
P19CL6 [1] = assay: Induction of mouse C57BL/6 P19CL6 cell differentiation assessed as induction of neuronal reporter neuroD activity by luciferase reporter gene assay; format: functional, cell-based
HCN [2] = assay: Induction of rat HCN cell differentiation assessed as induction of neuronal reporter neuroD activity by luciferase reporter gene assay; format: functional, cell-based
HCN [3] = assay: Induction of rat HCN cell differentiation assessed as induction of neuronal reporter neuroD activity at 20 uM after 24 hrs by luciferase reporter gene assay; format: functional, cell-based
HCN [4] = assay: Induction of L-type calcium channel/NMDA receptor-mediated Ca2+ influx in rat HCN cells at 5 uM by Fura-2 imaging analysis; format: cell-based
P19CL6 [5] = assay: Induction of mouse C57BL/6 P19CL6 cell differentiation assessed as induction of neuronal reporter gluR2 expression by luciferase reporter gene assay; format: functional, cell-based
HCN [6] = assay: Induction of rat HCN cell differentiation assessed as increase in Tuj1 gene expression after 3 hrs by RT-PCR analysis; format: functional, cell-based
HCN [7] = assay: Induction of neurogenesis in undifferentiated rat HCN cells assessed as GlR2/3 protein level at 8 to 64 uM after 9 hrs by protein blotting analysis; format: functional, cell-based
[8] = target: T1, Glutamate NMDA receptor (Rattus norvegicus) (UniProt P35439+Q00959+Q00960+Q00961+Q62645+Q8VHN2+Q9R1M7); assay: Induction of NMDA receptor-mediated Ca2+ influx in rat HCN cells in presence of NMDA receptor antagonist MK801; format: functional, cell-based
HCN [9] = assay: Induction of HDAC5 translocation in nucleus of rat HCN cells assessed as GFP-HDAC5 fusion protein accumulation at 20 uM by fluorescence assay; format: functional, cell-based
HCN [10] = assay: Induction of neurogenesis in undifferentiated rat HCN cells assessed as MEF2A protein level at 8 to 64 uM after 9 hrs by protein blotting analysis; format: functional, cell-based
HCN [11] = assay: Induction of neurogenesis in undifferentiated rat HCN cells assessed as MAP2AB protein level at 8 to 64 uM after 9 hrs by protein blotting analysis; format: functional, cell-based
HCN [12] = assay: Induction of rat HCN cell differentiation assessed as increase in NR1 gene expression after 1 day by RT-PCR analysis; format: functional, cell-based
[13] = Induction of rat HCN cell differentiation assessed as upregulation of MEF2C expression after 2 to 4 days by protein blotting analysis; format: functional, cell-based
HCN [14] = assay: Induction of rat HCN cell differentiation assessed as increase in MAP2AB gene expression after 9 days by RT-PCR analysis; format: functional, cell-based
HCN [15] = assay: Induction of rat HCN cell differentiation assessed as increase in neuroD gene expression after 3 hrs by RT-PCR analysis; format: functional, cell-based
HCN [16] = assay: Induction of rat HCN cell differentiation assessed as increase in NR1 gene expression after 3 days by RT-PCR analysis; format: functional, cell-based
HCN [17] = assay: Inhibition of gliogenesis differentiation in rat HCN cells at 25 uM after 4 days; format: functional, cell-based
HCN [18] = assay: Induction of rat HCN cell differentiation assessed as increase in Tuj1 gene expression after 3 days by RT-PCR analysis; format: functional, cell-based
[19] = Induction of rat HCN cell proliferation at 20 uM after 20 days by BrdU incorporation assay; format: functional
HCN [20] = assay: Induction of rat HCN cell differentiation assessed as increase in neuroD gene expression after 3 days by RT-PCR analysis; format: functional, cell-based
Neuronal progenitor cell [21] = assay: Induction of mouse progenitor cell differentiation into Tuj1 neurons at 20 uM after 4 days; format: functional, cell-based
Rattus norvegicus = species on record: Rattus norvegicus; assay: Induction of rat HCN differentiation into Tuj1 neurons at 25 uM after 4 days; format: functional
HCN [22] = assay: Induction of rat HCN cell differentiation assessed as increase in GluR2 gene expression after 3 days by RT-PCR analysis; format: functional, cell-based
HCN [23] = assay: Induction of L-type calcium channel/NMDA receptor-mediated neuroD gene expression in rat HCN cells at 50 uM after 24 hrs by RT-PCR analysis in presence of multiple inhibitors; format: cell-based
HCN [24] = assay: Induction of neurogenesis in undifferentiated rat HCN cells assessed as MEF2C protein level at 8 to 64 uM after 9 hrs by protein blotting analysis; format: functional, cell-based
HCN [25] = assay: Induction of L-type calcium channel/NMDA receptor-mediated Ca2+ influx in rat HCN cells at 5 uM by Fura-2 imaging analysis in presence of multiple of inhibitors; format: cell-based
HCN [26] = assay: Induction of HDAC5 translocation in nucleus of rat HCN cells assessed as GFP-HDAC5 S258A S498A mutant fusion protein accumulation at 5 uM by fluorescence assay; format: functional, cell-based
HCN [27] = assay: Induction of rat HCN cell differentiation assessed as increase in GluR2 gene expression after 3 hrs by RT-PCR analysis; format: functional, cell-based
HCN [28] = assay: Induction of rat HCN cell differentiation assessed as increase in neuroD gene expression after 1 day by RT-PCR analysis; format: functional, cell-based
HCN [29] = assay: Effect on subcellular distribution of CREB protein in rat HCN cells after 5 days; format: functional, cell-based
HCN [30] = assay: Induction of LIF/BMP2-mediated rat HCN cell differentiation into Tuj1 neurons after 4 days; format: functional, cell-based
[31] = target: T1, Glutamate NMDA receptor (Rattus norvegicus); assay: Induction of NMDA receptor-mediated neuroD gene expression in rat HCN cells at 50 uM after 24 hrs by RT-PCR analysis in presence of NMDA receptor antagonist MK801; format: functional, cell-based
HCN [32] = assay: Induction of rat HCN cell differentiation assessed as increase in GluR2 gene expression after 1 day by RT-PCR analysis; format: functional, cell-based
HCN [33] = assay: Induction of rat HCN cell differentiation assessed as increase in NR1 gene expression after 3 hrs by RT-PCR analysis; format: functional, cell-based
Neuronal progenitor cell [34] = assay: Induction of mouse progenitor cell differentiation into Map2ab-positive neurons at 20 uM after 4 days; format: functional, cell-based
HCN [35] = assay: Induction of CAMK-mediated HDAC5 phosphorylation in rat HCN cells by Western blot analysis in presence of 2.5 uM CAMK inhibitor KN93; format: cell-based
HCN [36] = assay: Induction of HDAC5 phosphorylation in rat HCN cells after 6 hrs; format: functional, cell-based
HCN [37] = assay: Induction of CAMK-mediated MREx3 activity in rat HCN cells by luciferase reporter gene assay in presence of 2.5 uM CAMK inhibitor KN93; format: cell-based
P19CL6 [38] = assay: Induction of C57BL/6 mouse P19CL6 cell differentiation at 50 uM after 4 days; format: functional, cell-based
HCN [39] = assay: Induction of CAMK-mediated MREx3 activity in rat HCN cells by luciferase reporter gene assay in presence of 2.5 uM potassium channel inhibitor KN92; format: cell-based
HCN [40] = assay: Effect on subcellular distribution of MEF2A protein in rat HCN cells after 5 days; format: functional, cell-based
[41] = Induction of rat HCN cell differentiation assessed as upregulation of MEF2A expression after 2 to 4 days by protein blotting analysis; format: functional, cell-based
HCN [42] = assay: Induction of HDAC5 translocation in cytoplasm of rat HCN cells assessed as phosphorylated HDAC5 accumulation; format: functional, cell-based
[43] = Cytotoxicity in rat HCN cells at 20 uM after 4 days; format: cell-based; conditions: 96 h
HCN [44] = assay: Induction of rat HCN cell differentiation assessed as induction of induction of MREx3 gene expression by luciferase reporter gene assay; format: functional, cell-based
Neuronal progenitor cell [45] = assay: Induction of mouse neuronal progenitor cell differentiation at 25 uM after 4 days; format: functional, cell-based
HCN [46] = assay: Induction of HDAC5 phosphorylation in rat HCN cells after 24 hrs; format: functional, cell-based
HCN [47] = assay: Induction of L-type calcium channel/NMDA receptor-mediated Ca2+ influx in rat HCN cells; format: cell-based
[48] = target: T1, Glutamate NMDA receptor (Rattus norvegicus); assay: Induction of NMDA receptor-mediated Ca2+ influx in rat HCN cells at 5 uM by Fura-2 imaging analysis in presence of NMDA receptor antagonist MK801; format: functional, cell-based
HCN [49] = assay: Induction of rat HCN cell differentiation assessed as increase in p27Kip1 gene expression after 9 days by RT-PCR analysis; format: functional, cell-based
HCN [50] = assay: Inhibition of LIF/BMP2-mediated rat HCN cell differentiation into astrocytes at 25 uM; format: functional, cell-based
HCN [51] = assay: Induction of CAMK2 phosphorylation in rat HCN cells by Western blot analysis in presence of 2.5 uM CAMK inhibitor KN93; format: cell-based
HCN [52] = assay: Induction of rat HCN cell differentiation into Tuj1 neurons at 20 uM after 4 days in presence of caspase inhibitor Q-VD-Oph; format: functional, cell-based
[53] = target: T1, Glutamate NMDA receptor (Rattus norvegicus); assay: Induction of NMDA receptor-mediated neuroD gene expression in rat HCN cells at 50 uM after 3 hrs by RT-PCR analysis in presence of NMDA receptor antagonist nifedipine; format: functional, cell-based
HCN [54] = assay: Induction of rat HCN cell differentiation assessed as increase in DCX gene expression after 9 days by RT-PCR analysis; format: functional, cell-based
HCN [55] = assay: Induction of CAMK-mediated MREx3 activity in rat HCN cells by luciferase reporter gene assay in presence of 200 nM PKC inhibitor Go6976; format: cell-based
[56] = Induction of rat HCN cell differentiation assessed as upregulation of MEF2D expression after 2 to 4 days by protein blotting analysis; format: functional, cell-based
HCN [57] = assay: Induction of LIF/BMP2-mediated rat HCN cell differentiation into GFAP-positive astrocytes after 4 days; format: functional, cell-based
[58] = target: T1, Glutamate NMDA receptor (Rattus norvegicus); assay: Induction of NMDA receptor-mediated neuroD gene expression in rat HCN cells at 50 uM after 3 hrs by RT-PCR analysis in presence of NMDA receptor antagonist MK801; format: functional, cell-based
HCN [59] = assay: Induction of L-type calcium channel/NMDA receptor-mediated Ca2+ influx in rat HCN cells in presence multiple inhibitors; format: cell-based
HCN [60] = assay: Induction of rat HCN cell differentiation assessed as increase in beta-TUB3 gene expression after 9 days by RT-PCR analysis; format: functional, cell-based
[61] = target: T1, Glutamate NMDA receptor (Rattus norvegicus); assay: Induction of NMDA receptor-mediated neuroD gene expression in rat HCN cells at 50 uM after 24 hrs by RT-PCR analysis in presence of NMDA receptor antagonist nifedipine; format: functional, cell-based
HCN [62] = assay: Induction of rat HCN cell differentiation assessed as increase in neuroD gene expression at 10 uM after 3 hrs by RT-PCR analysis; format: functional, cell-based
HCN [63] = assay: Induction of L-type calcium channel/NMDA receptor-mediated neuroD gene expression in rat HCN cells at 50 uM after 3 hrs by RT-PCR analysis in presence of multiple inhibitors; format: cell-based
HCN [64] = assay: Induction of rat HCN cell differentiation assessed as increase in Tuj1 gene expression after 1 day by RT-PCR analysis; format: functional, cell-based
HCN [65] = assay: Effect on subcellular distribution of MEF2C protein in rat HCN cells after 5 days; format: functional, cell-based

O=C(NC1CCCC1)c1cc(-c2ccco2)on1
Activity (P19CL6 [1]): Dose-dependent effect | Activity (HCN [2]): Dose-dependent effect

O=C(NC1CCC1)c1cc(-c2cccs2)on1
Activity (HCN [3]): Active

CNC(=O)c1cc(-c2cccs2)on1
Activity (HCN [3]): Active

O=C(NC1CC1)c1cc(-c2cccs2)on1
Activity (HCN [4]): Active | Activity (P19CL6 [5]): Dose-dependent effect | Activity (HCN [6]): Active | Activity (HCN [7]): Active | Activity [8]: Active | Activity (HCN [9]): Active | Activity (HCN [10]): inactive | Activity (HCN [11]): Active | Activity (HCN [12]): Active | Activity [13]: Active | Activity (HCN [14]): Active | Activity (HCN [15]): Active | Activity (HCN [16]): Active | inhibition (HCN [17]): Active | Activity (HCN [18]): Active | Activity [19]: 40% | Activity (HCN [20]): Active | Activity (Neuronal progenitor cell [21]): Active | Activity (Rattus norvegicus): Active | Activity (HCN [22]): Active | Activity (HCN [23]): Active | Activity (HCN [24]): inactive | Activity (HCN [25]): Active | Activity (HCN [26]): Active | Activity (HCN [27]): Active | Activity (HCN [28]): Active | Activity (HCN [29]): inactive | Activity (HCN [30]): Active | Activity [31]: Active | Activity (HCN [32]): Active | Activity (HCN [33]): Active | Activity (Neuronal progenitor cell [34]): Active | Activity (HCN [35]): inactive | Activity (HCN [36]): Active | Activity (HCN [37]): inactive | Activity (P19CL6 [38]): Active | Activity (HCN [39]): Active | Activity (HCN [40]): inactive | Activity [41]: inactive | Activity (HCN [42]): Active | Activity [43]: 18% | Activity (HCN [3]): Active | Activity (HCN [44]): Dose-dependent effect | Activity (Neuronal progenitor cell [45]): Active | Activity (HCN [46]): Active | Activity (HCN [47]): Active | Activity [48]: Active | Activity (HCN [49]): Active | inhibition (HCN [50]): Active | Activity (HCN [51]): inactive | Activity (HCN [52]): Active | Activity [53]: Active | Activity (HCN [54]): Active | Activity (HCN [55]): Active | Activity [56]: Active | inhibition (HCN [57]): Active | Activity [58]: Active | Activity (HCN [59]): Active | Activity (HCN [60]): Active | Activity (HCN [2]): Dose-dependent effect | Activity [61]: Active | Activity (HCN [62]): Active | Activity (HCN [63]): Active | Activity (HCN [64]): Active | Activity (HCN [65]): inactive

O=C(NC1CCCC1)c1cc(-c2cccs2)on1
Activity (HCN [3]): Active | Activity (HCN [2]): Dose-dependent effect

Cc1cc(C(=O)Nc2sc3c(c2C#N)CCCC3)no1
Activity (HCN [2]): Dose-dependent effect

C=CCNC(=O)c1cc(-c2cccs2)on1
Activity (P19CL6 [1]): Dose-dependent effect

O=C(NC1CCCCC1)c1cc(-c2cccs2)on1
Activity (HCN [3]): Active
